Results from ChEMBL document CHEMBL5338730, “Metabolism-Guided Selective Androgen Receptor Antagonists: Design, Synthesis, and Biological Evaluation for Activity against Enzalutamide-Resistant Prostate Cancer” (J Med Chem, 2023).

What was measured:
in vitro = conditions: mouse, microsomes
Description: Half life in mouse liver microsomes at 50 uM measured for 60 mins in presence of NADP+

[1] = mouse, microsomes, 1 h, 50 µM

| SMILES | half-life at 1 h, 50 µM (in vitro) | CLH [1] |
| --- | --- | --- |
| C[C@](O)(CS(=O)(=O)c1ccc(F)cc1)C(=O)Nc1ccc(C#N)c(C(F)(F)F)c1 [(R)-BICALUTAMIDE] | 10 h | – |
| C[C@](O)(COc1ccc(C#N)cc1)C(=O)Nc1ccc(C#N)c(C(F)(F)F)c1 [ENOBOSARM] | – | 1400 µL/min/mg |
